Measurements taken from patent US8148391B2 (Cephalon, Inc., priority 2006, dated 2012).
Read-outs that look alike come from different tables or passages of the source.

What was measured:
[1] = target: T1, baculovirus-expressed ALK (Homo sapiens, UniProt Q9UM73); assay: ALK Kinase Assay (ELISA-type, time-resolved fluorescence); format: biochemical
T1 construct: host or cells: baculovirus expression system
Summary of the method: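 Wells were coated with phospholipase C-γ at 10 μg/mL in Tris-buffered saline. Adding 30 ng/ml enzyme started the reaction, which ran at 37° C for 15 minutes before Eu-N1 PT66 antibody detection. Percent inhibition versus log10 concentration gave IC50 by variable-slope fit.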

[2] = target: T2, c-Met (cytoplasmic domain) (Homo sapiens, UniProt P08581); assay: c-Met Kinase Assay (same methods as for ALK, with modifications); format: biochemical
T2 construct: 10 ng/mL c-Met (cytoplasmic domain, Invitrogen Corporation #PV3143); purchased Invitrogen Corporation PV3143
Summary of the method: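 Steps: coat wells with PLC-γ (10 μg/mL, Tris-buffered saline); add 10 ng/mL c-Met cytoplasmic domain to initiate; incubate 15 min, 37° C; detect phosphoproduct via Eu-N1 PT66 antibody.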

[3] = 1 μM ATP (Km level), read-out: ALK Activity (ALK Kinase Inhibition, IC50)
[4] = 1 μM ATP (Km level), read-out: cMet Activity (c-Met Kinase Inhibition, IC50)
[5] = ALK kinase inhibition, 1 μM ATP (Km level), read-out: ALK Activity
[6] = c-Met kinase inhibition, 1 μM ATP (Km level), read-out: cMet Activity
[7] = ALK kinase inhibition, 1 μM ATP, read-out: ALK Activity
[8] = c-Met kinase inhibition, 1 μM ATP, read-out: cMet Activity
[9] = 1 μM ATP (Km level), 30 ng/ml ALK, 37° C., 15 minutes, read-out: ALK Activity (ALK kinase inhibition, IC50 class)
[10] = 1 μM ATP (Km level), 10 ng/mL c-Met, read-out: cMet Activity (c-Met kinase inhibition, IC50 class)

T2 sequence (P08581 956-1390 limits assumed): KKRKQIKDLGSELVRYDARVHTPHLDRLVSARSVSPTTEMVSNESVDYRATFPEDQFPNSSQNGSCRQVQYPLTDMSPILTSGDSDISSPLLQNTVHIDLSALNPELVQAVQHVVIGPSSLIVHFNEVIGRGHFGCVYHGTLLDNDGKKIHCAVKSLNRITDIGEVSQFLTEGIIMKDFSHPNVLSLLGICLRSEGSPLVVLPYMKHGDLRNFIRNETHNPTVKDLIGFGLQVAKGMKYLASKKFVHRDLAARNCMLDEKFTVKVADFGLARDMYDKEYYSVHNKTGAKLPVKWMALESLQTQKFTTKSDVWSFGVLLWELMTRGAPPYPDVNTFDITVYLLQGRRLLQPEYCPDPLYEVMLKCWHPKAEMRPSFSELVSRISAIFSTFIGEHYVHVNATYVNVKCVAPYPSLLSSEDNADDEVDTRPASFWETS
T1 sequence (Q9UM73 19-1620): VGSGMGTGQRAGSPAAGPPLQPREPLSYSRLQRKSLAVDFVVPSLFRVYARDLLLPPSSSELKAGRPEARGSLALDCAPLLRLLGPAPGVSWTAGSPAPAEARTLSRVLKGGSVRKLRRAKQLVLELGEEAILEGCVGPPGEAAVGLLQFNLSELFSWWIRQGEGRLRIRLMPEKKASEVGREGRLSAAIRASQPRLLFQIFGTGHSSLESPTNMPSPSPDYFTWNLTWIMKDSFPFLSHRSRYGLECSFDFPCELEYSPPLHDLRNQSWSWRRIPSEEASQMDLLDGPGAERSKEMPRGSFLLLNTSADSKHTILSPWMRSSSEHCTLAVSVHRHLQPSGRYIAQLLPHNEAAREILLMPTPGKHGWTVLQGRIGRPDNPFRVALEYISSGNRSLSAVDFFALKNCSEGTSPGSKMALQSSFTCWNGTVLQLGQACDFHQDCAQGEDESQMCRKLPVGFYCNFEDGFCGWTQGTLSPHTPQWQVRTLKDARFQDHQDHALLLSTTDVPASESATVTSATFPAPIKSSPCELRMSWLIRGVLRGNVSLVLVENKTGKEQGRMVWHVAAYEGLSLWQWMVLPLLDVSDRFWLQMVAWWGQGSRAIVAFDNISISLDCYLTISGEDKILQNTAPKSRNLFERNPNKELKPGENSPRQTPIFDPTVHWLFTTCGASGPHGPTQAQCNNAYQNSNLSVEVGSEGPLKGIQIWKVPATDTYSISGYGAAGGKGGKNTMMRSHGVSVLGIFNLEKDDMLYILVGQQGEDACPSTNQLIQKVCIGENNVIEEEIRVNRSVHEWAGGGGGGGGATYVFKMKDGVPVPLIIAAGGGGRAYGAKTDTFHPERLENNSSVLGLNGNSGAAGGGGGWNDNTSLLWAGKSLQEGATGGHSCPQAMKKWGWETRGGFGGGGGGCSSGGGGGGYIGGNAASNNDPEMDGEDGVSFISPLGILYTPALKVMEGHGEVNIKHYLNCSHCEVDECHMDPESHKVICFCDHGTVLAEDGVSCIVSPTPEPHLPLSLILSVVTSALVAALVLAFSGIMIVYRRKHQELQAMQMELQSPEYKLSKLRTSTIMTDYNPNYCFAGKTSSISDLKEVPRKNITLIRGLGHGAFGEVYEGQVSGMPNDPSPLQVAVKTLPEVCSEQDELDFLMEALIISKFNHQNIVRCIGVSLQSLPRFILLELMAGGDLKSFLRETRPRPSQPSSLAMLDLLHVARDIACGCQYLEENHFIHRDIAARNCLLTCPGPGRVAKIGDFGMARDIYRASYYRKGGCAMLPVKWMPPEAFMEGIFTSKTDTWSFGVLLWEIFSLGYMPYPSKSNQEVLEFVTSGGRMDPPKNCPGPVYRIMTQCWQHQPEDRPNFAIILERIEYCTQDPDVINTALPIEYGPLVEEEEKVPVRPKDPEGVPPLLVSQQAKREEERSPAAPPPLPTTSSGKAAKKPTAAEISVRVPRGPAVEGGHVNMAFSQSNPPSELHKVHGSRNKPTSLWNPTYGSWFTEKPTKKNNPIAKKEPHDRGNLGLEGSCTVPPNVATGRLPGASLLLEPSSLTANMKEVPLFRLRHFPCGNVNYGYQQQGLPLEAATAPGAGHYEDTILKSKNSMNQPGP

## CCN1CC(=O)N(CC)c2cc(Nc3ncc(Cl)c(Nc4ccc(OC)cc4-n4cccn4)n3)c(OC)cc2C1 [Example 737, 8-[5-Chloro-4-(4-methoxy-2-pyrazol-1-yl-phenylamino)-pyrimidin-2-ylamino]-1,4-diethyl-7-methoxy-1,3,4,5-tetrahydro-benzo[e][1,4]diazepin-2-one]
[1]; [3]
  IC50: < 100 nM
[2]; [4]
  IC50: > 10000 nM

## CNC(=O)c1ccccc1Nc1nc(Nc2ccc3c(c2)CCN(C(=O)C(F)(F)F)CC3)ncc1Cl [Example 44, 2-{5-Chloro-2-[3-(2,2,2-trifluoro-acetyl)-2,3,4,5-tetrahydro-1H-benzo[d]azepin-7-ylamino]-pyrimidin-4-ylamino}-N-methyl-benzamide]
[1]; [5]
  IC50: < 100 nM
[2]; [6]
  IC50: < 100 nM

## 8-{5-Chloro-4-[2-(2-morpholin-4-yl-ethoxy)-phenylamino]-pyrimidin-2-ylamino}-1,3,4,5-tetrahydro-benzo[b]azepin-2-one [Example 1464]
[1]; [7]
  IC50: 1000 to 10000 nM
[2]; [8]
  IC50: > 10000 nM

## COCCN1CCc2ccc(Nc3ncc(Cl)c(Nc4c(F)cccc4C(N)=O)n3)cc2CC1 [Example 1257, 2-{5-Chloro-2-[3-(2-methoxy-ethyl)-2,3,4,5-tetrahydro-1H-3-benzazepin-7-ylamino]-pyrimidin-4-ylamino}-3-fluoro-benzamide]
[1]; [9]
  IC50: < 100 nM
[2]; [10]
  IC50: 100 to 1000 nM

## CCOC(=O)N1CC(=O)Nc2cc(Nc3ncc(Cl)c(Nc4c(F)cccc4C(=O)NC)n3)ccc2C1 [Example 1869, 8-[5-Chloro-4-(2-fluoro-6-methylcarbamoyl-phenylamino)-pyrimidin-2-ylamino]-2-oxo-1,2,3,5-tetrahydro-benzo[e][1,4]diazepine-4-carboxylic acid ethyl ester]
[1]; [7]
  IC50: 1000 to 10000 nM
[2]; [8]
  IC50: 100 to 1000 nM

## CNC(=O)c1cccc(Cl)c1Nc1nc(Nc2ccc3c(c2)CCC(=O)NC3(C)C)ncc1Cl [Example 1828, 3-Chloro-2-(5-chloro-2-(1,1-dimethyl-3-oxo-2,3,4,5-tetrahydro-1H-benzo[c]azepin-7-ylamino)pyrimidin-4-ylamino)-N-methylbenzamide]
[1]; [7]
  IC50: < 100 nM
[2]; [8]
  IC50: < 100 nM

## COCCN1CCc2ccc(Nc3ncc(Cl)c(Nc4ccccc4OCC(N)=O)n3)cc2CC1 [Example 1241, 2-(2-{5-Chloro-2-[3-(2-methoxy-ethyl)-2,3,4,5-tetrahydro-1H-3-benzazepin-7-ylamino]-pyrimidin-4-ylamino}-phenoxy)-acetamide]
[1]; [9]
  IC50: 100 to 1000 nM
[2]; [10]
  IC50: 100 to 1000 nM

## COc1cc2c(cc1Nc1ncc(Cl)c(Nc3ccccc3S(=O)(=O)C(C)C)n1)CCN(CC(=O)N(C)C)CC2 [Example 1151, 2-(7-{5-Chloro-4-[2-(propane-2-sulfonyl)-phenylamino]-pyrimidin-2-ylamino}-8-methoxy-1,2,4,5-tetrahydro-benzo[d]azepin-3-yl)-N,N-dimethyl-acetamide]
[1]; [9]
  IC50: < 100 nM
[2]; [10]
  IC50: 1000 to 10000 nM

## COCCN1CCc2cc(Nc3ncc(Cl)c(NC4C5C=CC(C5)C4C(=O)N(C)C)n3)c(OC)cc2CC1 (stereo not drawn) [Example 606, (2-exo-3-exo)-3-{5-Chloro-2-[8-methoxy-3-(2-methoxy-ethyl)-2,3,4,5-tetrahydro-1H-benzo[d]azepin-7-ylamino]-pyrimidin-4-ylamino}-bicyclo[2.2.1]hept-5-ene-2-carboxylic acid dimethylamide]
[1]; [3]
  IC50: < 100 nM
[2]; [4]
  IC50: > 10000 nM

## CCNC(=O)c1ccccc1Nc1nc(Nc2ccc3c(c2)CCC(N2CCOCC2)CC3)ncc1Cl (centres unmarked) [Example 866, 2-[5-Chloro-2-(7-morpholin-4-yl-6,7,8,9-tetrahydro-5H-benzocyclohepten-2-ylamino)-pyrimidin-4-ylamino]-N-ethyl-benzamide]
[1]; [3]
  IC50: < 100 nM
[2]; [4]
  IC50: < 100 nM

## COc1cc2c(cc1Nc1ncc(Cl)c(Nc3cccc(N4CCOCC4)c3)n1)CCN(CC(=O)N(C)C)CC2 [Example 1145, 2-{7-[5-Chloro-4-(3-morpholin-4-yl-phenylamino)-pyrimidin-2-ylamino]-8-methoxy-1,2,4,5-tetrahydro-benzo[d]azepin-3-yl}-N,N-dimethyl-acetamide]
[1]; [9]
  IC50: < 100 nM
[2]; [10]
  IC50: > 10000 nM

## COc1c(Nc2ncc(Cl)c(Nc3ccccc3-n3cccn3)n2)ccc2c1CCC(NCC(F)(F)F)CC2 (centres unmarked) [Example 690, 5-Chloro-N*2*-[1-methoxy-7-(2,2,2-trifluoro-ethylamino)-6,7,8,9-tetrahydro-5H-benzocyclohepten-2-yl]-N*4*-(2-pyrazol-1-yl-phenyl)-pyrimidine-2,4-diamine]
[1]; [3]
  IC50: 100 to 1000 nM
[2]; [4]
  IC50: > 10000 nM

## COc1cc2c(cc1Nc1ncc(Cl)c(N[C@@H]3CCCC[C@H]3NS(C)(=O)=O)n1)CCN(CC(=O)N1CCOCC1)CC2 [Example 1528, N-((1R,2R)-2-{5-Chloro-2-[8-methoxy-3-(2-morpholin-4-yl-2-oxo-ethyl)-2,3,4,5-tetrahydro-1H-3-benzazepin-7-ylamino]-pyrimidin-4-ylamino}-cyclohexyl)-methanesulfonamide]
[1]; [7]
  IC50: < 100 nM
[2]; [8]
  IC50: > 10000 nM

## CCN1C(=O)CCC(C)(C)c2ccc(Nc3ncc(Cl)c(Nc4ccccc4S(=O)(=O)N(C)C)n3)cc21 [Example 1595, 2-[5-Chloro-2-(1-ethyl-5,5-dimethyl-2-oxo-2,3,4,5-tetrahydro-1H-benzo[b]azepin-8-ylamino)-pyrimidin-4-ylamino]-N,N-dimethyl-benzenesulfonamide]
[1]; [7]
  IC50: < 100 nM
[2]; [8]
  IC50: < 100 nM

## CNC(=O)c1ccccc1Nc1nc(Nc2ccc3c(c2)C2CC3CN(CCOC)C2)ncc1Cl (centres unmarked) [Example 161, 2-{5-Chloro-2-[10-(2-methoxy-ethyl)-10-aza-tricyclo[6.3.1.0*2,7*]dodeca-2,4,6-trien-4-ylamino]-pyrimidin-4-ylamino}-N-methyl-benzamide]
[1]; [5]
  IC50: < 100 nM
[2]; [6]
  IC50: 100 to 1000 nM

## COc1c(Nc2ncc(Cl)c(N[C@@H]3CCCC[C@H]3NS(C)(=O)=O)n2)ccc2c1CCC(NCCO)CC2 (single isomer, unassigned) [Example 699]
[1]; [3]
  IC50: < 100 nM
[2]; [4]
  IC50: > 10000 nM

## CNC(=O)c1ccccc1Nc1nc(Nc2ccc3c(c2)CCN(C[C@H](O)C(F)(F)F)CC3)ncc1Cl [Example 328, 2-{5-Chloro-2-[3-((S)-3,3,3-trifluoro-2-hydroxy-propyl)-2,3,4,5-tetrahydro-1H-benzo[d]azepin-7-ylamino]-pyrimidin-4-ylamino}-N-methyl-benzamide]
[1]; [5]
  IC50: < 100 nM
[2]; [6]
  IC50: < 100 nM

## CCN1CCN(CC)c2cc(Nc3ncc(Cl)c(Nc4ccccc4S(=O)(=O)N(C)C)n3)ccc2C1 [Example 730, 2-[5-Chloro-2-(1,4-diethyl-2,3,4,5-tetrahydro-1H-benzo[e][1,4]diazepin-8-ylamino)-pyrimidin-4-ylamino]-N,N-dimethyl-benzenesulfonamide]
[1]; [3]
  IC50: < 100 nM
[2]; [4]
  IC50: < 100 nM

## COc1ccc(Nc2nc(Nc3ccc4c(c3)CCC(N3CCOCC3)CC4)ncc2Cl)c2c1CN(C)C2=O (centres unmarked) [Example 939, 7-[5-Chloro-2-(7-morpholin-4-yl-6,7,8,9-tetrahydro-5H-benzocyclohepten-2-ylamino)-pyrimidin-4-ylamino]-4-methoxy-2-methyl-2,3-dihydro-isoindol-1-one]
[1]; [3]
  IC50: < 100 nM
[2]; [4]
  IC50: 1000 to 10000 nM

## CN1C(=O)CCCc2cc(Nc3ncc(Cl)c(Nc4ccc(N5CCOCC5)cc4C(N)=O)n3)ccc21 [Example 355, 2-[5-Chloro-2-(1-methyl-2-oxo-2,3,4,5-tetrahydro-1H-benzo[b]azepin-7-ylamino)pyrimidin-4-ylamino]-5-morpholin-4-yl-benzamide]
[1]; [5]
  IC50: < 100 nM
[2]; [6]
  IC50: 100 to 1000 nM

## COc1cc2c(cc1Nc1ncc(Cl)c(Nc3cc(Cl)ccc3OC)n1)CCN(CC(F)F)CC2 [Example 768, 5-Chloro-N*4*-(5-chloro-2-methoxy-phenyl)-N*2*-[3-(2,2-difluoro-ethyl)-8-methoxy-2,3,4,5-tetrahydro-1H-benzo[d]azepin-7-yl]-pyrimidine-2,4-diamine]
[1]; [3]
  IC50: 100 to 1000 nM
[2]; [4]
  IC50: > 10000 nM

## 3-{2-[2-(1-Acetyl-4-oxo-1,2,3,4,5,6-hexahydro-1,5-benzodiazepin-8-ylamino)-5-chloro-pyrimidin-4-ylamino]-phenoxy}-propionitrile [Example 1237]
[1]; [9]
  IC50: < 100 nM
[2]; [10]
  IC50: 100 to 1000 nM

## CC1(C)CCCNc2ccc(Nc3ncc(Cl)c(N[C@@H]4CCCC[C@H]4NS(C)(=O)=O)n3)cc21 [Example 392, N-{(1R,2R)-2-[5-Chloro-2-(5,5-dimethyl-2,3,4,5-tetrahydro-1H-benzo[b]azepin-7-ylamino)-pyrimidin-4-ylamino]-cyclohexyl}-methanesulfonamide]
[1]; [5]
  IC50: < 100 nM
[2]; [6]
  IC50: 1000 to 10000 nM

## COc1cc2c(cc1Nc1ncc(Cl)c(Nc3ccccc3S(=O)(=O)C(C)C)n1)CCC(N1CCOCC1)CC2 (centres unmarked) [Example 1050, 5-Chloro-N*2*-(3-methoxy-7-morpholin-4-yl-6,7,8,9-tetrahydro-5H-benzocyclohepten-2-yl)-N*4*-[2-(propane-2-sulfonyl)-phenyl]-pyrimidine-2,4-diamine]
[1]; [9]
  IC50: < 100 nM
[2]; [10]
  IC50: > 10000 nM

## O=C1CCCc2ccc(Nc3ncc(Cl)c(Nc4c(F)cccc4OCC4CCOC4)n3)cc2N1 (centres unmarked) [Example 1276, 8-{5-Chloro-4-[2-fluoro-6-(tetrahydro-furan-3-ylmethoxy)-phenylamino]-pyrimidin-2-ylamino}-1,3,4,5-tetrahydro-1-benzazepin-2-one]
[1]; [9]
  IC50: 100 to 1000 nM
[2]; [10]
  IC50: 100 to 1000 nM
